From patent US9474780B2, “GIP and GLP-1 co-agonist compounds” (Eli Lilly and Company, priority 2015, dated 2016) come the findings set out here.

Each structure is given as a SMILES string. Numbered stars: 1 amine (or outer) side, 2 acyl side, 3 side chain; on linkers, the order of the positions; unused ones are H or OH. Square brackets hold non-standard residues; d marks the D form. Side chains are listed from the residue outwards. Peptide text beside a SMILES is read from it. * marks the point of attachment. C18 diacid = O=C(O)CCCCCCCCCCCCCCCCC(=O)*; γGlu = O=C(O)[C@H](CCC(=O)[*:2])N[*:1]; 1Nal = N[C@@H](Cc1cccc2ccccc12)C(=O)O; AEEA = NCCOCCOCC(=O)O; Aib = CC(C)(N)C(=O)O

The test system of one series is mouse islets. As to the kind of experiment: Mouse islet insulin secretion. Format: cell-based. To be noted: read-out: Mouse islet insulin secretion Mean ED50. The procedure: To assess action of compounds of the present invention in a system representing physiological GLP-1R and GIP-R expression levels insulin secretion, compounds are tested for effects on insulin secretion from wild-type rodent islets.
After common bile duct cannulation in male C57B1/6 mice (22-26 g) or male Sprague-Dawley rats (approx. 250 g), the pancreas is distended with Hank's buffer (3 ml for mice or 10 ml for rats, containing 2% BSA and 0.75 mg/ml Clzyme collagenase (VitaCyte). Subsequently, tissues are digested in Hank's buffer at 37° C. for 11-13 minutes (mice) or 14-16 minutes for rat pancreata. Purified islets (Histopaque-1100 gradient [Sigma-Aldrich], […] at 750× gravity) are cultured overnight in RPMI-1640 medium (Invitrogen) containing 10% FBS, 100 U/ml penicillin and 100 μg/ml streptomycin, and preconditioned by starvation in Earle's Balanced Salt Solution (EBSS) supplemented with 0.1% BSA and 2.8 mM glucose. Subsequently, islets are incubated in EBSS (Invitrogen) supplemented with 0.1% BSA, 2.8-11.2 mM glucose and increasing levels of compound (6 batches of 4 islets/condition). GLP-1(7-36)amide (30 nM) is used as a positive control. Insulin is measured over 90 minutes in supernatant using the MSD Insulin Assay (Meso Scale, Gaithersburg, Md.).

The target of another series is Human GCGR (Homo sapiens, UniProt P47871). As to the kind of experiment: Functional hGCGR cAMP assay in HEK-293 clonal cells. (Cyclic AMP is a second messenger, typically raised through Gs and lowered through Gi signalling.)
For series [1], the target named is T1, human GLP-1R (Homo sapiens, UniProt P43220).
T1 construct: expressed in transfected cells; host or cells: 293HEK, Hygromycin-selected; crude plasma membranes
As to the kind of experiment: Functional hGLP-1R cAMP assay in HEK-293 clonal cells. Format: cell-based. To be noted: HEK293; percent of maximal response of hGLP-1(7-36)NH2.

In the next series the target is T2, human GIP-R (Homo sapiens, UniProt P48546).
T2 sequence (P48546 22-466): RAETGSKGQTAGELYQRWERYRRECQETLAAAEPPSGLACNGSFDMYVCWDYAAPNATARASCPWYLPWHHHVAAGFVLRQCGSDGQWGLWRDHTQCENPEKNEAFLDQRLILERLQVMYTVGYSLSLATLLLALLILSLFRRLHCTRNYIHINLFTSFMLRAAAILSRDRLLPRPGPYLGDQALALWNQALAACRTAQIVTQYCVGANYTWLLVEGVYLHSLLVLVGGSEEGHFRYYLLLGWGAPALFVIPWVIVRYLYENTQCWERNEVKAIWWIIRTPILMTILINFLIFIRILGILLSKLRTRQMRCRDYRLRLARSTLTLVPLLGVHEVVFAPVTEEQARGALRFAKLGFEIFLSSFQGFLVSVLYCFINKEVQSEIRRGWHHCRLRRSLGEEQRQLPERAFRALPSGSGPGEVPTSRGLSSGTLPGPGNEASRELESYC
Put plainly: Functional hGIP-R cAMP assay in HEK-293 clonal cells. To be noted: HEK293, read-out: Human GIP-R Emax.

Series [2] can be described thus: Weight loss, body composition and hepatic steatosis in DIO mice. The format is in vivo, mouse. To be noted: for Blood Glucose: Day 15. The procedure:
The effects on weight loss, body composition and hepatic steatosis in DIO mice for compounds of the present invention are evaluated in C57/BL6 DIO mice. […] Animals are individually housed in a temperature-controlled (24° C.) facility with a 12 hour light/dark cycle (lights on 22:00), and free access to food and water. […] Daily body weight and food intake are measured throughout the study. Absolute changes in body weight are calculated by subtracting the body weight of the same animal prior to the first injection of compound. […] On Day 15, blood glucose is measured with Accu-Chek glucometer (Roche) from tail vein blood and then animals may be sacrificed and livers removed and frozen. Liver triglycerides, determined from homogenates of livers collected at sacrifice, and plasma cholesterol are measured on a Hitachi Modular P clinical analyzer. Statistical comparisons between groups are done using one-way ANOVA followed by Dunnett's multiple comparison test. The ED50 for weight loss lowering is determined in GraphPad Prism using the non-linear fit tool.

In series [3] the target is T1, human GLP-1R. The format is binding.
Series [4] is described as follows: Rat in vivo insulin secretion following intravenous glucose (IVGTT). To be noted: s.c. 16 hour prior to glucose. Here is the method:
Male Wistar rats (Harlan Labs, Indianapolis, Ind.) are randomized by body weight and dosed 1.5 ml/kg s.c. 16 hour prior to glucose administration and then fasted. Doses are vehicle, 0.1, 0.3, 1, 3 and 10 nmol/kg. Animals are weighed, and then anesthetized with sodium pentobarbital (Nembutal Sodium solution; Ovation Pharmaceuticals) dosed i.p. (65 mg/kg, 30 mg/ml). A time zero blood sample is collected into EDTA tubes after which glucose is administered ([…], 5 ml/kg). Blood samples are collected at 2, 4, 6, 10, 20, and 30 minutes post glucose. Plasma glucose levels are determined using a Hitachi analyzer (Roche) and plasma insulin is measured by the MSD insulin assay (Meso Scale, Gaithersburg, Md.).

Series [5] in a line: Pharmacokinetics in cynomolgus monkeys. Format: in vivo. To be noted: cynomolgus monkey, plasma, single SC 0.2 mg/kg, male monkeys, n = 2. Here is the method: The compounds are administered by a single intravenous or subcutaneous dose (0.2 mg/kg) in 20 mM citrate buffer (pH 7.0) at a volume of 0.21 ml/kg. Blood is collected from each animal at 2, 4, 8, 12, 24, 48, 72, 96, 120, 144, 168, 204, 240, and 312 hours post-dosage. The plasma concentrations of compounds of the present invention are determined by a LC/MS method. Briefly, a compound of the present invention is extracted from 100% Monkey plasma sample (50 μl) diluted with 1×PBS (150 μl) and mixed with N-butanol (400 μl). Three distinct liquid layers are formed with the compound located in the top layer. A volume of 200 μl is transferred to a v-bottom 96-well plate, dried down using heated Nitrogen gas and reconstituted with 100 μl of 30% acetonitrile/0.1% formic acid. 20 μl of the reconstituted sample is injected onto a Supelco Analytical Discovery bio wide C5 3 μm column. The column effluent is directed into a Thermo Q-Exactive mass spectrometer for detection and quantitation.

T1 sequence (P43220 24-463): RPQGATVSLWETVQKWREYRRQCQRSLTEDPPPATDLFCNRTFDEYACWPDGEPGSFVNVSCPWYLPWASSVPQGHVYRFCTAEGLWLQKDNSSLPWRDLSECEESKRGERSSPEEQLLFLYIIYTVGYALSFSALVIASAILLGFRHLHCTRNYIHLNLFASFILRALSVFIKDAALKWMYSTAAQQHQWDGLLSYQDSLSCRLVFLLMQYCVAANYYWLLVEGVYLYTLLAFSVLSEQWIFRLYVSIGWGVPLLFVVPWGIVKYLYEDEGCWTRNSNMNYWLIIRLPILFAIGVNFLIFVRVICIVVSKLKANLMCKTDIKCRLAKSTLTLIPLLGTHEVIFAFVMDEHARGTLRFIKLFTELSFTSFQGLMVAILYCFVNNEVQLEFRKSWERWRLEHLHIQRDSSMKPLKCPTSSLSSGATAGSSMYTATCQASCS
Sequence of Human GCGR (P47871 26-477): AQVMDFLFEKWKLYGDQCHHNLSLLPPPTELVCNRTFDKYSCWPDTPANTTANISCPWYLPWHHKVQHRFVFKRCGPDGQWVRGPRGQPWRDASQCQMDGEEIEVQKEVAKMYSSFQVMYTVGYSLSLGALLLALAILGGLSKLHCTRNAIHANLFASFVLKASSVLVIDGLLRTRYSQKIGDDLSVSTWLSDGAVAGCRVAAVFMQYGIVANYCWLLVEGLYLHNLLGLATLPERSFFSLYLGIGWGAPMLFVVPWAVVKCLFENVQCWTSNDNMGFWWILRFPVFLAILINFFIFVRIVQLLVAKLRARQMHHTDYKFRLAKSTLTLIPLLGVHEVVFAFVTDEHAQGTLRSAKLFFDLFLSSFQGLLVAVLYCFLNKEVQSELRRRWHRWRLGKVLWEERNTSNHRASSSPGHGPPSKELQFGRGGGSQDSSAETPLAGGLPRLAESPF

As a reminder, the Emax is the greatest response seen or fitted, relative to the assay's reference. As for `CC[C@H](C)[C@H](NC(=O)[C@H](CC(C)C)NC(=O)[C@H](Cc1c[nH]c2ccccc12)NC(=O)[C@H](CCC(N)=O)NC(=O)[C@@H](NC(=O)[C@H](Cc1ccccc1)NC(=O)[C@H](C)NC(=O)[C@H](CCCCNC(=O)COCCOCCNC(=O)COCCOCCNC(=O)CC[C@H](NC(=O)CC[C@H](NC(=O)CCCCCCCCCCCCCCCCC(=O)O)C(=O)O)C(=O)O)NC(=O)[C@H](CCC(N)=O)NC(=O)[C@H](C)NC(=O)[C@@H](NC(=O)[C@H](CCCCN)NC(=O)[C@H](CC(=O)O)NC(=O)[C@H](CC(C)C)NC(=O)C(C)(C)NC(=O)[C@@H](NC(=O)[C@H](CO)NC(=O)[C@H](Cc1ccc(O)cc1)NC(=O)[C@H](CC(=O)O)NC(=O)[C@H](CO)NC(=O)[C@@H](NC(=O)[C@H](Cc1ccccc1)NC(=O)[C@@H](NC(=O)CNC(=O)[C@H](CCC(=O)O)NC(=O)C(C)(C)NC(=O)[C@@H](N)Cc1ccc(O)cc1)[C@@H](C)O)[C@@H](C)O)[C@@H](C)CC)[C@@H](C)CC)C(C)C)C(=O)N[C@@H](C)C(=O)NCC(=O)NCC(=O)N1CCC[C@H]1C(=O)N[C@@H](CO)C(=O)N[C@@H](CO)C(=O)NCC(=O)N[C@@H](C)C(=O)N1CCC[C@H]1C(=O)N1CCC[C@H]1C(=O)N1CCC[C@H]1C(=O)N[C@@H](CO)C(N)=O` [Example 4], the EC50 was 0.0035 µM in the series on mouse islets and greater than 1 µM on Human GCGR. Further, the Emax at human GLP-1R [1] was found to be 100 ± 5%.

Usually CL/F stands for the apparent clearance, not corrected for the fraction that reaches the circulation. One may read the Cmax as the maximum level reached in the sampled fluid or tissue. As a reminder, the Tmax is the time from dosing to the highest level. Turning to `CC[C@H](C)[C@H](NC(=O)[C@H](CC(C)C)NC(=O)[C@H](Cc1c[nH]c2ccccc12)NC(=O)[C@H](CCC(N)=O)NC(=O)[C@@H](NC(=O)[C@H](Cc1cccc2ccccc12)NC(=O)[C@H](C)NC(=O)[C@H](CCCCNC(=O)COCCOCCNC(=O)COCCOCCNC(=O)CC[C@H](NC(=O)CCCCCCCCCCCCCCCCC(=O)O)C(=O)O)NC(=O)[C@H](CCC(N)=O)NC(=O)[C@H](C)NC(=O)[C@@H](NC(=O)[C@H](CCCCN)NC(=O)[C@H](CC(=O)O)NC(=O)[C@H](CC(C)C)NC(=O)C(C)(C)NC(=O)[C@@H](NC(=O)[C@H](CO)NC(=O)[C@H](Cc1ccc(O)cc1)NC(=O)[C@H](CC(=O)O)NC(=O)[C@H](CO)NC(=O)[C@@H](NC(=O)[C@H](Cc1ccccc1)NC(=O)[C@@H](NC(=O)CNC(=O)[C@H](CCC(=O)O)NC(=O)C(C)(C)NC(=O)[C@@H](N)Cc1ccc(O)cc1)[C@@H](C)O)[C@@H](C)O)[C@@H](C)CC)[C@@H](C)CC)C(C)C)C(=O)N[C@@H](C)C(=O)NCC(=O)NCC(=O)N1CCC[C@H]1C(=O)N[C@@H](CO)C(=O)N[C@@H](CO)C(=O)NCC(=O)N[C@@H](C)C(=O)N1CCC[C@H]1C(=O)N1CCC[C@H]1C(=O)N1CCC[C@H]1C(=O)N[C@@H](CO)C(N)=O` [Example 6] (H-Y[Aib]EGTFTSDYSI[Aib]LDKIAQK([AEEA-AEEA-γGlu-C18 diacid])A[1Nal]VQWLIAGGPSSGAPPPS-NH2), the results for the EC50 in the series on mouse islets and on Human GCGR were 0.0514 µM and greater than 1 µM, respectively. The Emax turned out to be 104 ± 4% on human GLP-1R [1] and 106 ± 3% at human GIP-R. For the same compound, the “% Change from starting body weight” value in series [2] (Table 8, 10 nmol/kg) is recorded as −15.31 ± 1.25 %; in series [2] (Table 8, 30 nmol/kg), −21.62 ± 0.92 %; in series [2] (Table 8, 100 nmol/kg) it was −33.95 ± 1.93 %; in series [2] (Table 10, 10 nmol/kg), −17.54 ± 1.17 %; in series [2] (Table 10, 30 nmol/kg) it was −19.52 ± 1.18 %; in series [2] (Table 10, 100 nmol/kg), −29.36 ± 2.62 %. Besides, the “% Change from starting fat mass” value in series [2] (Table 8, 10 nmol/kg) is on record as −24.75 ± 1.89 %; in series [2] (Table 8, 30 nmol/kg), −36.30 ± 2.47 %; in series [2] (Table 8, 100 nmol/kg), −64.64 ± 4.04 %; in series [2] (Table 10, 10 nmol/kg), −34.30 ± 1.20 %; in series [2] (Table 10, 30 nmol/kg), −39.52 ± 3.18 %; in series [2] (Table 10, 100 nmol/kg) it was −56.66 ± 4.96 %. The “Plasma Cholesterol” value in series [2] (Table 11, 10 nmol/kg) was found to be 198.4 ± 6.76 mg/dL; in series [2] (Table 11, 30 nmol/kg), 186.4 ± 17.04 mg/dL; in series [2] (Table 11, 100 nmol/kg) it was 151.4 ± 14.32 mg/dL; in series [2] (Table 13, 10 nmol/kg), 167.8 ± 15.59 mg/dL; in series [2] (Table 13, 30 nmol/kg) it was 159.8 ± 9.99 mg/dL; in series [2] (Table 13, 100 nmol/kg), 144.2 ± 7.12 mg/dL. The “Plasma Triglycerides” value in series [2] (Table 11, 10 nmol/kg) is 20.78 ± 4.40 mg/dL; in series [2] (Table 11, 30 nmol/kg), 26.12 ± 6.85 mg/dL; in series [2] (Table 11, 100 nmol/kg), 17.26 ± 1.67 mg/dL. Besides, the “Blood Glucose” value in series [2] (Table 11, 10 nmol/kg) turned out to be 105.8 ± 2.10 mg/dL; in series [2] (Table 11, 30 nmol/kg), 100.1 ± 3.29 mg/dL; in series [2] (Table 11, 100 nmol/kg), 103.6 ± 3.20 mg/dL; in series [2] (Table 13, 10 nmol/kg), 121.4 ± 2.74 mg/dL; in series [2] (Table 13, 30 nmol/kg), 121.9 ± 6.65 mg/dL; in series [2] (Table 13, 100 nmol/kg) it was 116.1 ± 4.67 mg/dL. The “Molar ratio of hGLP-1R/hGIP-R” value on human GLP-1R [3] (normalized by factor 4.53 from native GIP and GLP-1 binding) is 1.83. For the same compound, the “Absolute ratio of hGLP-1R/hGIP-R” value on human GLP-1R [3] (ratio of Ki values) was 8.3. In addition, the “% max increase of insulin AUC” value in series [4] is listed as 289 +/− 4%. Moreover, in series [4], the “ED50 for insulin, rat IVGTT” value is recorded as 2.58 nmol/kg. The same compound showed a CL/F in series [5] of 2.8 mL/h/kg. In addition, the concentration in series [5] peaked (Cmax) at 2200 ng/mL. The AUC(0-inf) in series [5] (read-out: Mean AUC0-inf) was 72300 ng·h/mL. In series [5] (read-out: Mean T1/2 (converted)), the half-life was 23 h. Further, the Tmax in series [5] (read-out: Mean Tmax) was determined as 4 h.
